The values that follow are results of earlier work, collected in patent publication US7700798B1, “Erogorgiaene congeners and methods and intermediates useful in the preparation of same” (The Research Foundation of State University of New York, priority 2005, dated 2010).

For this data set the following is noted: literature statement, comparison with the commercially used natural products.

Elisabethadione: the “anti-inflammatory potency compared with the pseudopterosins” value is “more potent than the related and commercially used natural products, the pseudopterosins”.
